From patent US20230115907A1, “HETEROCYCLIC COMPOUND AND PHARMACEUTICAL COMPOSITION, PREPARATION METHOD, INTERMEDIATE AND USE THEREOF” (EVOPOINT BIOSCIENCES CO., LTD., priority 2019, published 2023)

Tests used:
[1] = test system: HCC70 cells; assay: Inhibition of cell proliferation, CellTiter-Glo, HCC70; assay type: cell-based; settings: Homo sapiens, HCC70, 72 h, Efficacy Example 2 (Table 2), 72 h incubation
Method: (§1) The compounds were each prepared with 100% DMSO into 10 mM mother liquor.
(§2) HCC70 cells and OVCAR3 cells were digested and counted. Cells were diluted to an appropriate concentration according to cell density. 100 μL of cells were added to each well of a 96-well plate. Medium wells served as blank control (Min). The cells were incubated overnight in an incubator at 37° C./5% CO2.
(§3) A 200-fold stock solution of a compound was prepared with DMSO, and the compound was diluted with growth medium to a 3-fold stock solution, i.e., […] of each of 200-fold stock solutions of compound at different concentrations was added to 197 μL of medium. 50 μL of diluted compound was added to each well and the mixture was incubated at 37° C./5% CO2 for 72 h.
(§4) The 96-well plate was equilibrated to room temperature before detection. 40 μL of CellTiter-Glo solution was added to each well. The mixture was mixed for 2 min using a horizontal shaker to induce cell lysis. The mixture was incubated at room temperature for 60 min to stabilize […] signals. Fluorescence values were read on ENVISION.
(§5) (1) Data was analyzed by GraphPad Prism 5
(§6) (2) % inhibition rate=(maximum signal−compound signal)/(maximum signal−minimum signal)×100
(§7) (3) Maximum signal: signal of DMSO well
(§8) (4) Minimum signal: signal of medium well
(§9) The effect of SZ-015200, SZ-015256 and SZ-015268 on cell proliferation after incubation with HCC70, OVCAR-3, HCT116 and HCC1806 cells for 3 days was detected according to the method described in Efficacy Example 2, and the results are shown in Table 3.

[2] = test system: OVCAR3 cells; assay: Inhibition of cell proliferation, CellTiter-Glo, OVCAR3; assay type: cell-based; settings: Homo sapiens, OVCAR-3, 72 h, Efficacy Example 2 (Table 2), 72 h incubation
Method: as §1, §2, §3, §4, §5, §6, §7, §8, §9

Compound | IC50 [2] | IC50 [1]
CC(C)c1cnn2c(NCc3ccccc3)cc(NC[C@H]3CCNC[C@@H]3O)nc12 [CT7001, reference compound] | 467 nM | 310 nM
Cc1nc(NC2CCN(C(=O)O[C@@H]3CCN(C(=O)/C=C/CN(C)C)C3)CC2)n2ncc(C(C)C)c2n1 [SZ-015282, (R,E)-1-(4-(dimethylamino)but-2-enoyl)pyrrolidin-3-yl 4-((8-isopropyl-2-methylpyrazolo[1,5-a][1,3,5]triazin-4-yl)amino)piperidine-1-carboxylate] | 92.1 nM | 82.4 nM
CC#CC(=O)N1CC[C@@H](OC(=O)N2CCC(Nc3cc(C)nc4c3ncn4C(C)C)CC2)C1 [SZ-015284, (R)-1-(but-2-ynoyl)tetrahydropyrrol-3-yl 4-((3-isopropyl-5-methyl-3H-imidazo[4,5-b]pyridin-7-yl)amino)piperidine-1-carboxylate] | – | 97.4 nM
CCn1cnc2c(NC3CCN(C(=O)O[C@H]4CCN(C(=O)/C=C/CN(C)C)C4)CC3)ccnc21 [SZ-015285, (S,E)-1-(4-(dimethylamino)but-2-enoyl)pyrrolidin-3-yl 4-((3-ethyl-3H-imidazo[4,5-b]pyridin-7-yl)amino)piperidine-1-carboxylate] | 620 nM | 1050 nM
CC#CC(=O)N1CC[C@H](OC(=O)N2CCC(Nc3cc(C)nc4c3ncn4C(C)C)CC2)C1 [SZ-015289, (S)-1-(but-2-ynoyl)tetrahydropyrrol-3-yl 4-((3-isopropyl-5-methyl-3H-imidazo[4,5-b]pyridin-7-yl)amino)piperidine-1-carboxylate] | – | 117 nM
CC#CC(=O)N1CC[C@H](OC(=O)N2CCC(Nc3nc(C)nc4c(C(C)C)cnn34)CC2)C1 [SZ-015294, (S)-1-(but-2-ynoyl)pyrrolidin-3-yl 4-((8-isopropyl-2-methylpyrazolo[1,5-a][1,3,5]triazin-4-yl)amino)piperidine-1-carboxylate] | 72.1 nM | 50.2 nM
CC(C)n1cnc2c(NC3CCN(C(=O)O[C@H]4CCN(C(=O)/C=C/CN(C)C)C4)CC3)nc(-c3cn[nH]c3)nc21 [SZ-015298, (S,E)-1-(4-(dimethylamino)but-2-enoyl)pyrrolidin-3-yl 4-((9-isopropyl-2-(1H-pyrazol-4-yl)-9H-purin-6-yl)amino)piperidine-1-carboxylate] | – | 405 nM
Cc1nc(NC2CCN(C(=O)OC3CN(C(=O)/C=C/CN(C)C)C3)CC2)c2ncn(C(C)C)c2n1 [SZ-015308, (E)-1-(4-(dimethylamino)but-2-enoyl)azetidin-3-yl 4-((9-isopropyl-2-methyl-9H-purin-6-yl)amino)piperidine-1-carboxylate] | – | 92.1 nM
CC[C@H](CO)Nc1cc(NC2CCN(C(=O)O[C@H]3CCN(C(=O)/C=C/CN(C)C)C3)CC2)c2ncc(C(C)C)n2n1 [SZ-015317, (S)-1-((E)-4-(dimethylamino)but-2-enoyl)pyrrolidin-3-yl 4-((6-(((R)-1-hydroxybutan-2-yl)amino)-3-isopropylimidazo[1,2-b]pyridazin-8-yl)amino) piperidine-1-carboxylate] | 429 nM | 237 nM
CC[C@H](CO)Nc1nc(NC2CCN(C(=O)O[C@H]3CCN(C(=O)/C=C/CN(C)C)C3)CC2)n2ncc(C(C)C)c2n1 [SZ-015326, (S)-1-((E)-4-(dimethylamino)but-2-enoyl)pyrrolidin-3-yl 4-((2-(((R)-1-hydroxybutan-2-yl)amino)-8-isopropylpyrazolo[1,5-a][1,3,5]triazin-4-yl)amino)piperidine-1-carboxylate] | 33.2 nM | 50.3 nM
CC(C)Nc1nc(NC2CCN(C(=O)O[C@H]3CCN(C(=O)/C=C/CN(C)C)C3)CC2)n2ncc(C(C)C)c2n1 [SZ-015330, (S,E)-1-(4-(dimethylamino)but-2-enoyl)pyrrolidin-3-yl 4-((8-isopropyl-2-(isopropylamino)pyrazolo[1,5-a][1,3,5]triazin-4-yl)amino)piperidine-1-carboxylate] | 44 nM | 61 nM
CC(C)c1cnn2c(NC3CCN(C(=O)O[C@H]4CCN(C(=O)/C=C/CN(C)C)C4)CC3)nc(NC3CC3)nc12 [SZ-015331, (S,E)-1-(4-(dimethylamino)but-2-enoyl)pyrrolidin-3-yl 4-((2-(cyclopropylamino)-8-isopropylpyrazolo[1,5-a][1,3,5]triazin-4-yl)amino)piperidine-1-carboxylate] | 36.7 nM | 70.1 nM
CC(C)Oc1nc(NC2CCN(C(=O)O[C@H]3CCN(C(=O)/C=C/CN(C)C)C3)CC2)n2ncc(C(C)C)c2n1 [SZ-015332, (S,E)-1-(4-(dimethylamino)but-2-enoyl)pyrrolidin-3-yl 4-((2-isopropoxy-8-isopropylpyrazolo[1,5-a][1,3,5]triazin-4-yl)amino)piperidine-1-carboxylate] | 44.7 nM | 51.5 nM

Second part, led by results:

IC50 [2] | Compound | IC50 [1]
234 nM | Cc1nc(NC2CCN(C(=O)O[C@H]3CCN(C(=O)/C=C/CN(C)C)C3)CC2)c2ncn(C(C)C)c2n1 [SZ-015264, (S,E)-1-(4-(dimethylamino)but-2-enoyl)pyrrolidin-3-yl 4-((9-isopropyl-2-methyl-9H-purin-6-yl)amino)piperidine-1-carboxylate] | 181 nM
167 nM | CC(C)n1cnc2c(NC3CCN(C(=O)O[C@H]4CCN(C(=O)/C=C/CN(C)C)C4)CC3)ccnc21 [SZ-015286, (S,E)-1-(4-(dimethylamino)but-2-enoyl)pyrrolidin-3-yl 4-((3-isopropyl-3H-imidazo[4,5-b]pyridin-7-yl)amino)piperidine-1-carboxylate] | 570 nM
62.8 nM | CC[C@H](CO)Nc1nc(NC2CCN(C(=O)O[C@H]3CCN(C(=O)/C=C/CN(C)C)C3)CC2)c2ncn(C(C)C)c2n1 [SZ-015295, (S)-1-((E)-4-(dimethylamino)but-2-enoyl)pyrrolidin-3-yl 4-((2-(((R)-1-hydroxybutan-2-yl)amino)-9-isopropyl-9H-purin-6-yl)amino)piperidine-1-carboxylate] | 110 nM
168 nM | CC(C)n1cnc2c(NC3CCN(C(=O)O[C@H]4CCN(C(=O)/C=C/CN(C)C)C4)CC3)nc(CO)nc21 [SZ-015297, (S,E)-1-(4-(dimethylamino)but-2-enoyl)pyrrolidin-3-yl-4-((2-(hydroxymethyl)-9-isopropyl-9H-purin-6-yl)amino)piperidine-1-carboxylate] | 252 nM
114 nM | CC(C)Nc1cc(NC2CCN(C(=O)O[C@H]3CCN(C(=O)/C=C/CN(C)C)C3)CC2)c2ncn(C(C)C)c2n1 [SZ-015303, (S,E)-1-(4-(dimethylamino)but-2-enoyl)pyrrolidin-3-yl 4-((3-isopropyl-5-(isopropylamino)-3H-imidazo[4,5-b]pyridin-7-yl)amino)piperidine-1-carboxylate] | 129 nM
281 nM | CC[C@H](CO)Nc1cc(NC2CCN(C(=O)O[C@H]3CCN(C(=O)/C=C/CN(C)C)C3)CC2)c2ncn(C(C)C)c2n1 [SZ-015306, (S)-1-((E)-4-(dimethylamino)but-2-enoyl)pyrrolidin-3-yl 4-((5-(((R)-1-hydroxybutan-2-yl)amino)-3-isopropyl-3H-imidazo[4,5-b]pyridin-7-yl)amino)piperidine-1-carboxylate] | 205 nM
139 nM | Cc1cc(NC2CCN(C(=O)OC3CN(C(=O)/C=C/CN(C)C)C3)CC2)c2ncn(C(C)C)c2n1 [SZ-015307, (E)-1-(4-(dimethylamino)but-2-enoyl)azetidin-3-yl 4-((3-isopropyl-5-methyl-3H-imidazo[4,5-b]pyridin-7-yl)amino)piperidine-1-carboxylate] | 78 nM
58.4 nM | CCc1nc(NC2CCN(C(=O)O[C@H]3CCN(C(=O)/C=C/CN(C)C)C3)CC2)c2ncn(C(C)C)c2n1 [SZ-015310, (S,E)-1-(4-(dimethylamino)but-2-enoyl)pyrrolidin-3-yl 4-((2-ethyl-9-isopropyl-9H-purin-6-yl)amino)piperidine-1-carboxylate] | 29.5 nM
99.6 nM | COCCNc1cc(NC2CCN(C(=O)O[C@H]3CCN(C(=O)/C=C/CN(C)C)C3)CC2)c2ncn(C(C)C)c2n1 [SZ-015311, (S,E)-1-(4-(dimethylamino)but-2-enoyl)pyrrolidin-3-yl 4-((3-isopropyl-5-((2-methoxyethyl)amino)-3H-imidazo[4,5-b]pyridin-7-yl)amino)piperidine-1-carboxylate] | 95 nM
72.5 nM | CC(C)c1cc(NC2CCN(C(=O)O[C@H]3CCN(C(=O)/C=C/CN(C)C)C3)CC2)c2ncn(C(C)C)c2n1 [SZ-015319, (S,E)-1-(4-(dimethylamino)but-2-enoyl)pyrrolidin-3-yl 4-((3,5-diisopropyl-3H-imidazo[4,5-b]pyridin-7-yl)amino)piperidine-1-carboxylate] | 50.5 nM
110 nM | CC(C)Nc1nc(NC2CCN(C(=O)O[C@H]3CCN(C(=O)/C=C/CN(C)C)C3)CC2)c2ncc(C(C)C)n2n1 [SZ-015328, (S,E)-1-(4-(dimethylamino)but-2-enoyl)pyrrolidin-3-yl 4-((7-isopropyl-2-(isopropylamino)imidazo[2,1-f][1,2,4]triazin-4-yl)amino)piperidine-1-carboxylate] | 252 nM
